# Assay results as given in PMC7596534, “Bacterial inducible expression of plant cell wall-binding protein YesO through conflict between Glycine max and saprophytic Bacillus subtilis” (Scientific Reports, 2020).
# Molecular target: T1, YesO (Bacillus subtilis, UniProt O31518)
# T1 construct: primer-encoded N-terminus MTLRIAWWG, native stop codon, no tag apparent
# Test: X-ray crystallography of the complex, […] Å
# Type: binding
# Settings: crystallised with 1 mM oligo-RG-I (mostly disaccharide, trisaccharide seen in density); Tris-HCl pH 8.5, 20 C; cleft between N- and C-domains
# T1 sequence (O31518 34-427): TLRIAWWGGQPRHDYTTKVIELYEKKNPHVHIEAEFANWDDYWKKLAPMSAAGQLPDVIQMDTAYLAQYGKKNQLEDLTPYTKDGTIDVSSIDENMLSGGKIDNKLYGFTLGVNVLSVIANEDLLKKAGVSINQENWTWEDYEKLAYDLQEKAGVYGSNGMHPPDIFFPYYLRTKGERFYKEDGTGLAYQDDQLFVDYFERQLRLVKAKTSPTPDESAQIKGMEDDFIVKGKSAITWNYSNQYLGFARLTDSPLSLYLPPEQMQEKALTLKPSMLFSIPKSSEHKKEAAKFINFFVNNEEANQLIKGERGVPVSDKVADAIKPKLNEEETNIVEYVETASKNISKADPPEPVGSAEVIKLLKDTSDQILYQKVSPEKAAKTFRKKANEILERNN
smiles,measurement,value
C[C@@H]1OC(O)[C@H](O[C@H]2OC(C(=O)O)=C[C@H](O)[C@H]2O)[C@H](O)[C@H]1O[C@@H]1O[C@H](CO)[C@H](O)[C@H](O)[C@H]1O (stereo partly shown) [ΔGalUA-Rha-Gal],"X-ray crystallography of the complex, 1.58 Å","X-ray crystallography of YesO/oligo-RG-I indicated an interaction between YesO and the trisaccharide, ΔGalUA-Rha-Gal"
